Results on four compounds are retold here after patent publication US10882853B2, “Tyrosine kinase inhibitor and application thereof” (LaNova Medicines Limited, priority 2016, dated 2021).

For experiment [1], the system named is human malignant glioma cells U87MG. As to the kind of experiment: Inhibition on the proliferation of tumor cells (CCK8), U87MG. The format is cell-based. The note with it: read-out: U87MG IC50. How it is done:
(§1) (1) Culture cells: The tumor cells (such as human lung adenocarcinoma cells HCC78, human malignant glioma cells U87MG, human gastric cancer cells MKN-45, human umbilical vein endothelial cells HUVEC, human lung adenocarcinoma cells A549, etc.) were cultured in culture medium; culture conditions: 37° C., 5% CO2.
(§2) (2) Inoculate cells: The cells at the exponential growth phase and in good state were taken, and an appropriate amount of pancreatin for cell dissociation was added thereto, the cells were collected for centrifugation, and the supernatant was discarded. The cells were resuspended with the culture solution containing serum, then counted, and the cell suspensions were taken and inoculated in a 96-hole plate at 3000/hole, 90 μL/hole. The culture plate was transferred into a constant temperature CO2 incubator, and cultured under the conditions of 37° C., 5% CO2 and saturated humidity for 24 h.
(§3) (3) Add the test compounds: 10 μL/hole, culture for 72 h, 3 parallel holes were set for each group.
(§4) (4) Determine the results: After 72 h of action for the compounds, 10 μL/hole CCK8 was added, incubated in the incubator for an appropriate time, and the absorbance was measured at 450 nm.

Experiment [2] deals with human ovarian cancer cells SK-OV-3. As to the kind of experiment: Inhibition on the proliferation of tumor cells (CCK8), SK-OV-3. The format is cell-based. The note with it: for IC50: read-out: SK-OV-3 IC50. How it is done: as §1, §2, §3
The target in a further experiment is KDR (Homo sapiens (Human), UniProt P35968). In words: Inhibitory activity on KDR kinase (HTRF, XL-665/antibody). The format is biochemical. As to the method: The compounds in the above Examples are used for detecting and screening the inhibitory activities of C-MET and KDR kinase.
(2) Incubated at 25° C. for 5 min;
(3) 2 μL of ATP/substrate/MgCl2/MnCl2/SEB/DTT mixed solution were added into the holes;
(4) Centrifugated at 1000 rpm for 1 min, and incubated by vibration at 30° C. for 30 min;
(6) Incubated at 25° C. for 1 h;
(8) The data was analyzed according to the instructions of the kit, and the fitting calculation of IC50 was performed using GraphPad Prism5.
On the technique in general: Time-resolved FRET reads energy transfer from a long-lived donor to a nearby acceptor.

The test system of experiment [3] is human lung adenocarcinoma cells A549. In words: Inhibition on the proliferation of tumor cells (CCK8), A549. Type of experiment: cell-based. The note with it: for IC50: read-out: A549 IC50. How it is done: as §1, §2, §3
For experiment [4], the system named is human lung adenocarcinoma cells HCC78. In words: Inhibition on the proliferation of tumor cells (CCK8), HCC78. The note with it: read-out: HCC78 IC50. The format is cell-based. How it is done: as §1, §2, §3
In experiment [5] the test system is human colon cancer cells HCT116. As to the kind of experiment: Inhibition on the proliferation of tumor cells (CCK8), HCT116. Type of experiment: cell-based. The note with it: for IC50: read-out: HCT116 IC50. How it is done:
as §1, §2, §3

Experiment [6] relates to human gastric cancer cells MKN-45. As to the kind of experiment: Inhibition on the proliferation of tumor cells (CCK8), MKN-45. Type of experiment: cell-based. The note with it: read-out: MKN-45 IC50. As to the method: as §1, §2, §3, §4

Molecules are shown by their SMILES. Read-outs that look alike come from different tables or passages of the source. Bounds are passed on as bounds.

What is called IC50 is the point on the concentration scale where inhibition reaches its midpoint.

Sequence of KDR (P35968 20-1356): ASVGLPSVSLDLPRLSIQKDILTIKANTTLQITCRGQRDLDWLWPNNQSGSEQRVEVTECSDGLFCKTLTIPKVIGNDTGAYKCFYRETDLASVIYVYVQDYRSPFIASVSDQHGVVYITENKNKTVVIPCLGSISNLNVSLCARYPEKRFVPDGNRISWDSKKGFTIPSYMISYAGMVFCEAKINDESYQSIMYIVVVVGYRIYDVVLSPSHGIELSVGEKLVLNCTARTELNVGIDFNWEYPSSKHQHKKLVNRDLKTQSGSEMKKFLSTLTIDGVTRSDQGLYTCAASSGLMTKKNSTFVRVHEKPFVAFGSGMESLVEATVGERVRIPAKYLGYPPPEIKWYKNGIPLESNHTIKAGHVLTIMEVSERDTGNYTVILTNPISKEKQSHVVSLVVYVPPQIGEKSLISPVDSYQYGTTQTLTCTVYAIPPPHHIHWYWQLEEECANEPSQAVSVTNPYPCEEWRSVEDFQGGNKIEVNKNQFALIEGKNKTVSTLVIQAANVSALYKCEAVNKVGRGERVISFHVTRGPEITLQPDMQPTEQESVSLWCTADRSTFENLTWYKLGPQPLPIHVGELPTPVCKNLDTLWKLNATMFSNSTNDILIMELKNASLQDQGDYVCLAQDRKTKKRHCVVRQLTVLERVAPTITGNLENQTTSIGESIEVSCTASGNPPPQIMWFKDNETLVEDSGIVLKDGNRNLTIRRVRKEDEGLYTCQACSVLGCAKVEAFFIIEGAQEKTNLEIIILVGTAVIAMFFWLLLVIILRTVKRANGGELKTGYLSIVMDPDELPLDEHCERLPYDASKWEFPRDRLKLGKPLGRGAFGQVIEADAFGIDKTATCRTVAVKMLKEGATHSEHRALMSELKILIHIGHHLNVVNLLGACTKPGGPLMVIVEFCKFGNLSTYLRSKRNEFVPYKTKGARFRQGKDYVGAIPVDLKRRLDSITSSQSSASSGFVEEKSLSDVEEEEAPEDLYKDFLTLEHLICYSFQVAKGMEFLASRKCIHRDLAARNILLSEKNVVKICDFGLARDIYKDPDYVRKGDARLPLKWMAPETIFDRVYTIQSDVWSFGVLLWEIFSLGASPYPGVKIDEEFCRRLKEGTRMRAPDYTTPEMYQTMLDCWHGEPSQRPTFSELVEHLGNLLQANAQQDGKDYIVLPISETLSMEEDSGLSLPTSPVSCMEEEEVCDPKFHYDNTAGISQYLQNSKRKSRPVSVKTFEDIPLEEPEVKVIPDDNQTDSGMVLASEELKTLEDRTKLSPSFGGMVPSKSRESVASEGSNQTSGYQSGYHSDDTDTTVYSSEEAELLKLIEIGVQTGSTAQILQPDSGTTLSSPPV

As for `COc1cc2c(Oc3ccc(NC(=O)C4(C(=O)Nc5ccc(F)cc5)CC4)cc3F)ccnc2cc1OCC1CC(N2CCOCC2)C1` (centres unmarked) [Compound 5], the concentration for half-maximal inhibition (IC50) in experiment [1] (72 h, CCK8) was found to be 1.14 µM; in experiment [2] (72 h, CCK8), 3.49 µM; on KDR, 0.0399 µM; in experiment [3] (72 h, CCK8), 1.6 µM; in experiment [4] (Table 4 (FIG. 4), 72 h, CCK8), 0.0442 µM; in experiment [5] (72 h, CCK8), 1.66 µM. Also, the IC50 in experiment [6] (72 h, CCK8) turned out to be 1.26 µM.
`COc1cc2c(Oc3ccc(NC(=O)C4(C(=O)Nc5ccc(F)cc5)CC4)cc3F)ccnc2cc1OC1CC(N2CCOCC2)C1` (centres unmarked) [Compound 10, N-p-fluorophenyl-N-3-fluoro-4-[6-methoxyl-7-(3-morpholine-cyclobutyl)oxyquinoline-4-]oxyphenyl cyclopropyl-1,1-dimethyl formamide]: the IC50 in experiment [1] is 1.59 µM; in experiment [2] it was 7.85 µM; on KDR, 0.0642 µM; in experiment [3], 4.4 µM; in experiment [4] it was 0.107 µM; in experiment [5] it was 2.6 µM. For the same compound, the concentration for half-maximal inhibition (IC50) in experiment [6] worked out at 3.21 µM.
Regarding `COc1cc2c(Oc3ccc(NC(=O)C4(C(=O)Nc5ccc(F)c(F)c5)CC4)cc3F)ccnc2cc1OCCC[N+]1(C)CCOCC1` [For-Methyl, reference compound], the “SK-OV-3 IC50” value in experiment [2] is recorded as “No inhibition”. Besides, in experiment [3], the “A549 IC50” value was “No inhibition”. In addition, the IC50 in experiment [4] (Homo sapiens, HCC78, 72 h) was over 10 µM. Also, the “HCT116 IC50” value in experiment [5] is given as “No inhibition”.
Regarding `COc1cc2c(Oc3ccc(NC(=O)C4(C(=O)Nc5ccc(F)cc5)CC4)cc3F)ccnc2cc1OCCCN1CCOCC1` [Foretinib, reference compound], the IC50 in experiment [1] (Homo sapiens, U-87 MG, 72 h) turned out to be 1.65 µM; in experiment [2] (Homo sapiens, SK-OV-3, 72 h), 17.2 µM; in experiment [3] (Homo sapiens, A549, 72 h), 2.83 µM; in experiment [5] (Homo sapiens, HCT-116, 72 h), 2.06 µM; in experiment [6] (Homo sapiens, MKN-45, 72 h), 1.87 µM.
